In publication PMC8000079, “Targeting GABAC Receptors Improves Post-Stroke Motor Recovery” (Brain Sciences, 2021):

How the values were obtained:
Assay type in all cases: cell-based
α5β2γ2 GABAA receptor = molecular target: T1, α5β2γ2 GABAA receptor (Homo sapiens, UniProt P31644+P47870); assay: two-electrode voltage clamp in Xenopus oocytes, % inhibition of GABA ([…]) current at […]
T1 construct: gene GABRA5; α5β2γ2 receptors expressed in Xenopus oocytes; with β2 and γ2 GABAA subunits

ρ2 GABAC receptor [1] = molecular target: T2, ρ2 GABAC receptor (Homo sapiens, UniProt P28476); assay: two-electrode voltage clamp in Xenopus oocytes, shift of GABA concentration-response curve; conditions: read-out: Kd
T2 construct: gene GABRR2; human recombinant ρ2 GABAC receptors expressed in Xenopus oocytes

ρ2 GABAC receptor [2] = molecular target: T2, ρ2 GABAC receptor; assay: two-electrode voltage clamp in Xenopus oocytes, agonist dose-response

T2 sequence (P28476 21-465): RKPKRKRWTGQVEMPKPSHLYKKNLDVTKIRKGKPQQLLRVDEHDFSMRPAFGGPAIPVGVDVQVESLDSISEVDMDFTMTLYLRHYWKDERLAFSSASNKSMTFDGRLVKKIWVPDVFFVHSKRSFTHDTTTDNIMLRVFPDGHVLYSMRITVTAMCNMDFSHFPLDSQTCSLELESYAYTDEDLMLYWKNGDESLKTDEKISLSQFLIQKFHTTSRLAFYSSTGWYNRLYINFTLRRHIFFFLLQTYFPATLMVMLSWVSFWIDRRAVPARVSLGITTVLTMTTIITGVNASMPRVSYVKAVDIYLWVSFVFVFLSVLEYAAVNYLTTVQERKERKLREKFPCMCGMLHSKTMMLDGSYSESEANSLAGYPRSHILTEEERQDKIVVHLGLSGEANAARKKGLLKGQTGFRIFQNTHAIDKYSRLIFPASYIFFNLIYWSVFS
T1 sequence (P47870 26-512): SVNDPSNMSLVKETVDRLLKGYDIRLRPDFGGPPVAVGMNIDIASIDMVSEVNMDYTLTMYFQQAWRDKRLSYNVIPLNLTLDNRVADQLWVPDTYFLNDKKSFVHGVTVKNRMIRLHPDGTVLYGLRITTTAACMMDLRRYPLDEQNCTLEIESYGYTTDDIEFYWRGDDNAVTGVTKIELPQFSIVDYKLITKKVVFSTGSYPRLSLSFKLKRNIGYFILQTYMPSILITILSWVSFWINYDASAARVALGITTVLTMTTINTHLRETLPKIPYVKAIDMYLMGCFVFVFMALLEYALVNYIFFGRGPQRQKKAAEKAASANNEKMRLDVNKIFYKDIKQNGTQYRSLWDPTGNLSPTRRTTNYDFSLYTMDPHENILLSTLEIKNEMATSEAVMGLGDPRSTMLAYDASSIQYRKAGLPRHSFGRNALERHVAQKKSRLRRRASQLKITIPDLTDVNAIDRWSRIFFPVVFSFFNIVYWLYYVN
T1 sequence (P18507 40-475, further chain): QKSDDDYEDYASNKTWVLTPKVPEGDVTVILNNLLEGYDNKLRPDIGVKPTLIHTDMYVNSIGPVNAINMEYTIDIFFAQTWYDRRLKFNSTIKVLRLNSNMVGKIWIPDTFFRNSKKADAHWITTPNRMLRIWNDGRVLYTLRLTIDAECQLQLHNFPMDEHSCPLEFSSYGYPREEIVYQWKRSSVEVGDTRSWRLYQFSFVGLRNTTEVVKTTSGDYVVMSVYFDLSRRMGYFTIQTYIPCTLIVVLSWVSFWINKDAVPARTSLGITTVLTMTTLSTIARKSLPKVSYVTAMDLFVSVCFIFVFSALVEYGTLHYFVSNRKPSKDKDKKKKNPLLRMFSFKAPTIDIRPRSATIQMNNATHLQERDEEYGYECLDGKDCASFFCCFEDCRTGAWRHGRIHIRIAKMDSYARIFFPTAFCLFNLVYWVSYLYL
T1 sequence (P31644 32-462): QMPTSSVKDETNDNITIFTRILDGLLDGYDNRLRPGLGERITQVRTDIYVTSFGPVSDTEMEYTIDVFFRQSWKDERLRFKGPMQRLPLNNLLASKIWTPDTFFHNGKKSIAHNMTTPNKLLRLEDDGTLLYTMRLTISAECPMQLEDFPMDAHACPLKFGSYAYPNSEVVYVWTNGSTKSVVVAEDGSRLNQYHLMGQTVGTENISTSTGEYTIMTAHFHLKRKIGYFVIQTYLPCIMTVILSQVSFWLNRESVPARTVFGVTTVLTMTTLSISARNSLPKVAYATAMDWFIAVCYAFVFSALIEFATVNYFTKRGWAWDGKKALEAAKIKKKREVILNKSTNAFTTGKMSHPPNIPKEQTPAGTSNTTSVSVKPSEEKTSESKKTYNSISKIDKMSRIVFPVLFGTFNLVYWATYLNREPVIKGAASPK

Compound `CCCCP(=O)(O)C1=CC[C@@H](N)C1` [(R)-4-ACPBPA, (R)-4-amino-cyclopent-1-enyl butylphosphinic acid] has an inhibition at 100 µM (α5β2γ2 GABAA receptor) of 36 ± 2% and a Kb (ρ2 GABAC receptor [1]) of 6 µM.

`CCCCP(=O)(O)C1=CC[C@H](N)C1` [(S)-4-ACPBPA, (S)-4-amino-cyclopent-1-enyl butylphosphinic acid] gave an inhibition at 100 µM (α5β2γ2 GABAA receptor) of 37 ± 1.5% and a Kb (ρ2 GABAC receptor [1]) of 10.5 µM.

`NCCCC(=O)O` [GABA, γ-aminobutyric acid] was tested, and the EC50 (ρ2 GABAC receptor [2]) was ~ 1 µM.
